The source of these data is article PMC10763564, “BrainBike peptidomimetic enables efficient transport of proteins across brain endothelium” (RSC Chemical Biology, 2023).

Starred links: 1 amine or outer side, 2 acyl side, 3 side chain; linkers in the order of their positions; H or OH if unused. Positions of bridges follow the written chain, without caps; N, C: chain ends. Residues, ends and D or L forms follow the SMILES beside them. TBMB = c1c(C[*:1])cc(C[*:3])cc1C[*:2] Some results are limits rather than exact numbers.

Data set [1] in a line: Peptide stability in human serum. The data set is classed as in vitro ADME. As to conditions: peptide 100 µM, 37 °C, aliquots 0 min to 48 h, MeOH protein precipitation, % intact peptide by UHPLC-UV, confirmed with mass spectrometry. On the procedure:
Peptide stability in human serum
Peptides were dissolved in human serum at a final concentration of 100 µM and then incubated at 37 °C. Aliquots of 50 µL were taken at different times (0 min, 15 min, 30 min, 1 h, 2 h, 4 h, 6 h, 24 h and 48 h) and flash frozen with acetone/solid CO 2. Samples were treated with 200 µL of MeOH to precipitate serum proteins. Samples for U HPLC analysis were centrifuged and filtered through a 0.22 µm filter before injection. Aliquots were analysed with UHPLC-UV (flow = 0.61 mL/min; gradient 5 -95% MeCN (0.036% TFA) in water (0.045% TFA) in 2 minutes). The amount of peptide remaining was calculated by comparing the area under the curve of the several samples. […]

The target of another data set is HeLa cells (TfR1+) (Homo sapiens, UniProt P02786). Kind of data set: Cell binding assay of sCy5-labelled peptides to HeLa cells by flow cytometry. It counts as cell-based. To be noted: 5 to 600 nM, 4 °C, 1 hour, geometric mean vs concentration. The protocol: HeLa cells were cultured in DMEM media (1000 mg/L glucose) supplemented with 10% fetal bovine serum (FBS), 1% of 2 mM L -glutamine and 1% antibiotics (100 units/mL of penicillin and 100 µg/mL of streptomycin). Cells were expanded at 80% confluence and grown at 37°C with 5% CO2. All work performed with human cells follow the ethical principles and EU […]
HeLa cells (TfR1+), sequence (P02786 whole entry): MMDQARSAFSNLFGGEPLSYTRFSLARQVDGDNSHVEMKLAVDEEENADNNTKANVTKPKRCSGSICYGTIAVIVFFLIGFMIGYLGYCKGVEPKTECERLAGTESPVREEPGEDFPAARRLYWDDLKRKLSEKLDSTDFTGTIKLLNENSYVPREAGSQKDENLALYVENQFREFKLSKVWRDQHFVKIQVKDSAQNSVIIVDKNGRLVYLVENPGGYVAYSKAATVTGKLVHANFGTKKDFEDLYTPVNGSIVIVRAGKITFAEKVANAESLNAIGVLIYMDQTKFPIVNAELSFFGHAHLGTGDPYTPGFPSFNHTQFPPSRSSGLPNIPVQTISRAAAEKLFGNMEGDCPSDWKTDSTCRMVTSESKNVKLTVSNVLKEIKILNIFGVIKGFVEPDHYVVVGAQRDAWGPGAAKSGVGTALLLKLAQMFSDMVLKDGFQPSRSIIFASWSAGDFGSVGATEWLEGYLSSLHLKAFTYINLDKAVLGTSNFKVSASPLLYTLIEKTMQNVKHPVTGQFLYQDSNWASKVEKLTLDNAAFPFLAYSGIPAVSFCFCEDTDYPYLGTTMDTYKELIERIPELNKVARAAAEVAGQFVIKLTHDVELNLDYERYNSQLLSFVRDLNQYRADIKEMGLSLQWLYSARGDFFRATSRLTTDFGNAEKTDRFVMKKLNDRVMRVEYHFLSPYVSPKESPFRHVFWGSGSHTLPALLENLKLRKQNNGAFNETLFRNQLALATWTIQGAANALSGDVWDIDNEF
Cell transfection of HeLa cells to express higher levels of TfR1
In a 96-well plate, 10,000 HeLa cells per well were seeded and left to grow for 24 h. A mixture of Lipofectamine 3000 (0.1 µL/well, Lipofectamine™ 3000 Transfection Reagent, ThermoFisher Scientific ), P3000 Reagent (0.2 µL/well) and the DNA pTfR-mNeonGreen (Plasmid #129608, Addgene) (100 ng/well ) in Opti-MEM medium was prepared. The mixture was incubated for 15 mi n, added to the cells, and incubated for 48 h.
48-hour post-transfection, 50 μl of the sulfo-Cy5-labelled peptides were added to each well at the appropriate concentration (from 5 to 600 nM) and incubated at 4°C for 1 hour. Cells were washed three times with 100 μL of PBS, trypsinized with 25 μl of trypsin for 5 min at 37°C and, then 75 μL of supplemented medium with formalin (33% v/v) was added. Cells were detached by repeated pipetting and analysed using an Agilent NovoCyteflow cytometer (Agilent). sCy5 was analysed at 640 nm while mNeon-Green at 488 nm. Data was analysed by plotting the geometric mean vs the concentration of the peptide. […]

Data set [2] deals with T1, human Transferrin Receptor (Homo sapiens, UniProt P02786).
T1 construct: purchased Acro Biosystems TFR-H82E5
T1 sequence (P02786 89-760 limits assumed): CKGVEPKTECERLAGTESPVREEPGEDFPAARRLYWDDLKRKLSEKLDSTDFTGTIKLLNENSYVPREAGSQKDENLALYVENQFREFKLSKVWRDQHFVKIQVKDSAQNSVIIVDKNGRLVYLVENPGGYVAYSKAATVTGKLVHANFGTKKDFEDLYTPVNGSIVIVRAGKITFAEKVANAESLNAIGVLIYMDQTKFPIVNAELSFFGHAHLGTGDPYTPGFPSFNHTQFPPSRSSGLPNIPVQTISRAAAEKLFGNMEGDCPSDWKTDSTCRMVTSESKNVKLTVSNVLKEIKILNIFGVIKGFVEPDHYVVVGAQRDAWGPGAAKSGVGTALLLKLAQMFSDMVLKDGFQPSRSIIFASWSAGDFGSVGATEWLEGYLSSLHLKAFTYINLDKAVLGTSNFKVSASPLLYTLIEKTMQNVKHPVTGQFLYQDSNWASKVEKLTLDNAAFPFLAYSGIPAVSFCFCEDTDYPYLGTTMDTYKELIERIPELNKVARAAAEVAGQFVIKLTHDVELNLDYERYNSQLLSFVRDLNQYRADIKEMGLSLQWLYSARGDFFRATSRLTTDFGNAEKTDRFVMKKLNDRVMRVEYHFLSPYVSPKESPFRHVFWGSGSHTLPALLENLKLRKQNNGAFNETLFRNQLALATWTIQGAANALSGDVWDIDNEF
As to the kind of experiment: Biolayer interferometry with immobilized extracellular domain of the receptor. To be noted: biotinylated hTfR on streptavidin biosensors, Octet R2, 25 °C, 10 mM HEPES pH 7.4, 150 mM NaCl, 0.05 % Tween-20, 1 mg/mL BSA; peptide 11.1, 33.3, 100 µM; 1:1 binding model; read-out: KD, binding to immobilized human TfR. On the procedure:
Biophysical characterization
Binding assays were performed on an Octet R2 (Sartorious) using streptavidin-coated biosensors (SA biosensors, 18-5019). Biosensors were equilibrated for at least 10 min in binding buffer (10 mM HEPES pH 7.4, 150 mM NaCl, 0.05 % Tween-20, 1 mg/mL BSA).
Experiments were designed and executed from the Octet BLI Discovery 13.0 software. The biotinylated human Transferrin Receptor (TFR-H82E5, Acro Biosystems) was immobilized onto the biosensor by dipping the sensors into a solution of 1 µg/mL hTfR for 500 s, followed by dipping the sensor into a fresh solution of binding buffer to stablish a baseline for 200 s.
Titrations were executed at 25 °C while rotating at 1000 rpm. In the association phase, the sensors were dipped into a solution containing the peptides at several concentrations in binding buffer for 150 s. After reaching equilibrium, the biosensors were dipped into fresh binding solution to monitor the dissociation kinetics for 200 s. Kinetic data were collected and processed using a 1:1 binding model to obtain the affinity constants using the Octet Analysis […]
Unpaired two-tailed student t tests were applied to evaluate the significant difference or p values between data sets using Prism 6.0c software.
1. C. Heinis, T. Rutherford, S. Freund and G. Winter, Nat Chem Biol, 2009, 5, 502–507.
2. […]

Data set [3] deals with human brain endothelial cells monolayer (BBB model). As to the kind of experiment: Permeability assay in the in vitro BBB cellular model (human brain-like endothelial cells on Transwell). The data set is classed as in vitro ADME. As to conditions: human cell-based BBB model. On the procedure: 48-hour post-transfection, 50 μl of the sulfo-Cy5-labelled peptides were added to each well at the appropriate concentration (from 5 to 600 nM) and incubated at 4°C for 1 hour. Cells were washed three times with 100 μL of PBS, trypsinized with 25 μl of trypsin for 5 min at 37°C and, then 75 μL of supplemented medium with formalin (33% v/v) was added. Cells were detached by repeated pipetting and analysed using an Agilent NovoCyteflow cytometer (Agilent). sCy5 was analysed at 640 nm while mNeon-Green at 488 nm. Data was analysed by plotting the geometric mean vs the concentration of the peptide.
Permeability assays in the in vitro BBB cellular model […]
the compound in Ringer HEPES was added to the donor compartment and 1500 µL of Ringer HEPES was introduced into the acceptor compartment. The plates were incubated for 2 h at 37 °C, and the solutions from both compartments were recovered and analysed. The samples were evaluated in triplicates. The amount of protein conjugates was quantified by fluorescence with Fluorescence Spectrophotometer F2500 HITACHI. […] The voltage for the detector was 700 V. Apparent permeability was calculated with the following formula: […]

One may read the half-life as how long it takes for the measured level to halve. High values mean slow loss, low ones fast loss. A word on the Kd: it is the free concentration of one partner at which half of the binding sites on the other are occupied at equilibrium, for simple one-to-one binding. “H-GVHWDFRQWWQPS-NH2 [Y1, reference compound]”: the half-life at 100 µM in data set [1] was 1.8 ± 0.5 h. For the same compound, on HeLa cells (TfR1+), the “App. Kd, association to HeLa cells (TfR1+)” value (from here on “App. Kd, association”) was 270 ± 5 nM. For the same compound, the Kd in data set [2] was over 100000 nM.

Take `CC(C)[C@@H]1NC(=O)[C@@H](N)CSCc2cc3cc(c2)CSC[C@H](NC(=O)[C@H](CC(=O)O)NC(=O)[C@H](Cc2c[nH]c4ccccc24)NC(=O)[C@H](Cc2c[nH]cn2)NC1=O)C(=O)N[C@@H](CCCNC(=N)N)C(=O)N[C@@H](CCC(N)=O)C(=O)N[C@@H](Cc1c[nH]c2ccccc12)C(=O)N[C@@H](Cc1c[nH]c2ccccc12)C(=O)N[C@@H](CCC(N)=O)C(=O)N1CCC[C@H]1C(=O)N[C@@H](CO)C(=O)N[C@H](C(N)=O)CSC3` [BrainBike-1] (H-CVHWDCRQWWQPSC-NH2; linker 1-6-14 via TBMB): in data set [1], the half-life at 100 µM was 7.7 ± 1.9 h. The “App. Kd, association” value on HeLa cells (TfR1+) is given as over 400 nM.

The compound `CC(C)[C@@H]1NC(=O)[C@@H](N)CSCc2cc3cc(c2)CSC[C@H](NC(=O)[C@H](Cc2c[nH]c4ccccc24)NC(=O)[C@H](CCC(N)=O)NC(=O)[C@H](CCCNC(=N)N)NC(=O)[C@H](Cc2ccccc2)NC(=O)[C@H](CC(=O)O)NC(=O)[C@H](Cc2c[nH]c4ccccc24)NC(=O)[C@H](Cc2c[nH]cn2)NC1=O)C(=O)N[C@@H](CCC(N)=O)C(=O)N1CCC[C@H]1C(=O)N[C@@H](CO)C(=O)N[C@H](C(N)=O)CSC3` [BrainBike-2] (H-CVHWDFRQWCQPSC-NH2; linker 1-10-14 via TBMB) showed a half-life at 100 µM in data set [1] of 3.5 ± 0.3 h. In addition, the “App. Kd, association” value on HeLa cells (TfR1+) is given as 120 ± 15 nM.

On to `CC(C)[C@@H]1NC(=O)[C@@H](N)CSCc2cc3cc(c2)CSC[C@H](NC(=O)[C@H](CC(=O)O)NC(=O)[C@H](Cc2c[nH]c4ccccc24)NC(=O)[C@H](Cc2c[nH]cn2)NC1=O)C(=O)N[C@@H](CCCNC(=N)N)C(=O)N[C@@H](CCC(N)=O)C(=O)N[C@@H](Cc1c[nH]c2ccccc12)C(=O)N[C@H](C(N)=O)CSC3` [BrainBike-4] (H-CVHWDCRQWC-NH2; linker 1-6-10 via TBMB), for which the half-life at 100 µM in data set [1] was 5.5 ± 2.5 h. Moreover, the “App. Kd, association” value was “roughly 40 nM” at HeLa cells (TfR1+) and 37 ± 2 nM on HeLa cells (TfR1+) (listed as BB4). In data set [3] (GFP conjugate vs GFP), the “Fold increase in the transport of GFP on conjugation to the shuttle” value is 4 fold. Moreover, the “Fold increase in the transport of the scFv on conjugation to the shuttle” value in data set [3] (sCy5-labelled scFv conjugate vs scFv) is reported as 5 fold.

Regarding `CC(C)[C@@H]1NC(=O)[C@@H](N)CSCc2cc3cc(c2)CSC[C@H](NC(=O)[C@H](CCCNC(=N)N)NC(=O)[C@H](Cc2ccccc2)NC(=O)[C@H](CC(=O)O)NC(=O)[C@H](Cc2c[nH]c4ccccc24)NC(=O)[C@H](Cc2c[nH]cn2)NC1=O)C(=O)N[C@@H](CCC(N)=O)C(=O)N[C@@H](Cc1c[nH]c2ccccc12)C(=O)N[C@@H](Cc1c[nH]c2ccccc12)C(=O)N[C@@H](CCC(N)=O)C(=O)N1CCC[C@H]1C(=O)N[C@@H](CO)C(=O)N[C@H](C(N)=O)CSC3` [BrainBike-3] (H-CVHWDFRCQWWQPSC-NH2; linker 1-8-15 via TBMB), the half-life at 100 µM in data set [1] is 4.8 ± 0.6 h. The “App. Kd, association” value on HeLa cells (TfR1+) is recorded as 250 ± 5 nM.
